Data published in patent publication US9409864B2, “Sulfonamide TRPA1 receptor antagonists” (ARIO PHARMA LIMITED, priority 2013, dated 2016).

Biological target: T1, native human TRPA1 receptors (Homo sapiens, UniProt O75762)
T1 construct: stably expressing native human TRPA1 receptors were used; endogenous in cells; host or cells: A549 human lung adenocarcinoma epithelial cell line
Experiment: PF-4840154 (1 μM)-induced Ca2+ fluorescence measurements in A549 cell line
Type: cell-based
Conditions: for inhibition at 10 µM: 10 μM compound against 1 μM PF-4840154, A549 cells
Method: PF-4840154 (1 μM)-Induced Ca^2+ Fluorescence Measurements in A549 Cell Line
Human lung adenocarcinoma epithelial cell line (A549) stably expressing native human TRPA1 receptors were used. The cells were cultured in medium consisting of Eagle's minimal essential medium (EMEM) supplemented with 10% fetal bovine serum (FBS), penicillin (100 IU/ml), streptomycin ([…]), L-glutamine (2 mM), sodium bicarbonate (2.5 g/L) and HEPES (24 mM). Cells were kept at 37° C. in 5% CO2/humidified air. For the experiments the cells were seeded at a density of 16,000 cells/well into 96-well black, clear-bottom plates. After 24 hours incubation the cells were loaded with medium supplemented with 2.5 mM probenecid, 3 μM of the calcium sensitive fluorescent dye Fluo-4 AM and 0.01% pluronic acid, for 30 min at 37° C. Afterwards the loading solution was aspirated and 100 μl/well of assay buffer: Hank's Balanced Salt Solution (HBSS) supplemented with 2.5 mM probenecid and 500 μM Brilliant Black (Aldrich) was added. Stock solutions (100 mM) of ligands were made in Dimethyl Sulfoxide (DMSO) and stored at −20° C. Serial dilutions of ligands for experimental use were made in HBSS buffer. After placing both plates (cell culture and compound plate) into the FlexStation II (Molecular Device, Union City, Calif. 94587, US), fluorescence changes were measured. On-line additions were carried out in a volume of […]. To facilitate drug diffusion into the wells in antagonist type experiments, the studies were performed at 36.5° C. and three cycles of mixing (25 μl from each well moved up and down 3 times) were performed immediately after antagonist injection to the wells. All exemplified compounds were tested alone (to address residual agonistic activity) and against 1 μM of PF-4840154 to address inhibitory activity at the initial concentration of 10 μM. For selected examples the entire inhibitory concentration-response curves were constructed and the IC50 value calculated.
PF-4840154 (1 μM) increased [Ca^2+] in the vast majority (95%) of cultured cells which were thereby identified as TRPA1 expressing cells.

[1] = against PF-4840154 (1 μM)-evoked [Ca2+]i mobilization, A549 cells
[2] = against PF-4840154 (1 μM), A549 cells, cells printed in μM

T1 sequence (O75762 whole entry): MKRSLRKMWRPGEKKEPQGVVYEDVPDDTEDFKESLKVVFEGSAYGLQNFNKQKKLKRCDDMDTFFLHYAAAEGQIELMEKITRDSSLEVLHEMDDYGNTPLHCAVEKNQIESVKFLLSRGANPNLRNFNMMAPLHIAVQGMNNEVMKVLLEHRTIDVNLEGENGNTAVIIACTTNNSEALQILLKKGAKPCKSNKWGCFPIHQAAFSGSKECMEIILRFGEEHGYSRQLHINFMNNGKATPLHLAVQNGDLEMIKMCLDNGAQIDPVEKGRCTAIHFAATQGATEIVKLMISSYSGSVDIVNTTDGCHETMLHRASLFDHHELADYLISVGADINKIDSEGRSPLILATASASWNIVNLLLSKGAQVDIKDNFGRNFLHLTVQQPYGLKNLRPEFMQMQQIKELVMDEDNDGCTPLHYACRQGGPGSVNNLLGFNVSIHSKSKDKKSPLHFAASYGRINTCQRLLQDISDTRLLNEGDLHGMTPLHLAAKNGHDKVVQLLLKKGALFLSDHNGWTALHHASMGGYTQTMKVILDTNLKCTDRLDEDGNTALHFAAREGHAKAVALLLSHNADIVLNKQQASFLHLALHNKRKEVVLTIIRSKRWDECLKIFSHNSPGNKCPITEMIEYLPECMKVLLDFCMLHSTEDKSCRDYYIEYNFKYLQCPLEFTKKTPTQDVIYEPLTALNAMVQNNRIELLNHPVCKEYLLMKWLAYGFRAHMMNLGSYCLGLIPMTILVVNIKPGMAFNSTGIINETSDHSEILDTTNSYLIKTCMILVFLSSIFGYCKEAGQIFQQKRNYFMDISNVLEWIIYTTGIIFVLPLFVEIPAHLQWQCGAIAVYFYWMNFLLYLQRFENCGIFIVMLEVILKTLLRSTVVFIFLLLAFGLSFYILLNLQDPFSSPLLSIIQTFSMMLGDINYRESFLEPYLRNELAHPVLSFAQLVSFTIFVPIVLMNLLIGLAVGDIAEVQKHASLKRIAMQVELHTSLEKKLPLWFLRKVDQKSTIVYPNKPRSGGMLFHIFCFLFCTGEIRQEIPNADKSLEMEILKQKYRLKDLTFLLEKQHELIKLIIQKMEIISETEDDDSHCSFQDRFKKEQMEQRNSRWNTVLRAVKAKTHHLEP

Row | Compound | inhibition at 10 µM | IC50 [1] | IC50 [2] | cultured cells with increased [Ca2+] (PF-4840154 1 μM, A549 cells)
1 | C=C(C(=O)NCc1cc(-c2ccc(C(F)(F)F)cc2)nc(N(C)C)c1)N(CC)S(=O)(=O)c1cccs1 [Example 41, N-[[2-dimethylamino-6-[4-(trifluoromethyl)phenyl]-4-pyridyl]methyl]-2-(ethyl(2-thienylsulfonyl)amino)prop-2-enamide] | 96% | 0.135 µM | – | –
2 | CCN(C1(C(=O)NCc2ccnc(-c3ccc(C(F)(F)F)cc3)c2)CC1)S(=O)(=O)c1ccc(F)cc1 [Example 25, 1-[ethyl-(4-fluorophenyl)sulfonyl-amino]-N-[[2-[4-(trifluoromethyl)phenyl]-4-pyridyl]methyl]cyclopropanecarboxamide] | 100% | 0.076 µM | – | –
3 | CCOc1cc(CNC(=O)C2(N(CC)S(=O)(=O)c3ccc(F)cc3)CC2)cc(-c2ccc(C(F)(F)F)cc2)n1 [Example 52, N-[[2-ethoxy-6-[4-(trifluoromethyl)phenyl]-4-pyridyl]methyl]-1-[ethyl-(4-fluorophenyl)sulfonyl-amino]cyclopropanecarboxamide] | 99% | 0.087 µM | – | –
4 | CCN(C1(C(=O)NCc2ccnc(-c3ccc(OC(F)(F)F)cc3)c2)CC1)S(=O)(=O)c1ccc(Cl)cc1 [Example 27, 1-[(4-chlorophenyl)sulfonyl-ethyl-amino]-N-[[2-[4-(trifluoromethoxy)phenyl]-4-pyridyl]methyl]cyclopropanecarboxamide] | 100% | 0.135 µM | – | –
5 | C=C(C(=O)NCc1cccc(-c2ccc(OC(F)(F)F)cc2)c1)N(CC)S(=O)(=O)c1ccc(Cl)s1 [Example 55, 2-[(5-chloro-2-thienyl)sulfonyl-ethyl-amino]-N-[[3-[4-(trifluoromethoxy)phenyl]phenyl]methyl]prop-2-enamide] | 100% | 0.031 µM | – | –
6 | C=C(C(=O)NCc1cc(-c2ccc(C(F)(F)F)cc2)nc(N2CCOCC2)c1)N(CC)S(=O)(=O)c1ccc(Cl)s1 [Example 43, 2-[(5-chloro-2-thienyl)sulfonyl-ethyl-amino]-N-[[2-morpholino-6-[4-(trifluoromethyl)phenyl]-4-pyridyl]methyl]prop-2-enamide] | 100% | 0.048 µM | – | –
7 | CCN(C1(C(=O)NCc2ccnc(-c3ccc(C(F)(F)F)cc3)c2)CC1)S(=O)(=O)c1ccc(Cl)s1 [Example 46, 1-[(5-chloro-2-thienyl)sulfonyl-ethyl-amino]-N-[[2-[4-(trifluoromethyl)phenyl]-4-pyridyl]methyl]cyclopropanecarboxamide] | 97% | 0.063 µM | – | –
8 | C=C(C(=O)NCc1cc(-c2ccc(OC(F)(F)F)cc2)nc(N2CCN(CC3CC3)CC2)c1)N(CC)S(=O)(=O)c1ccc(F)cc1 [Example 63, N-[[2-[4-(cyclopropylmethyl)piperazin-1-yl]-6-[4-(trifluoromethoxy)phenyl]-4-pyridyl]methyl]-2-[ethyl-(4-fluorophenyl)sulfonyl-amino]prop-2-enamide] | 99% | 0.175 µM | – | –
9 | CCN(C1(C(=O)NCc2cc(-c3ccc(C(F)(F)F)cc3)nc(N(C)C)c2)CC1)S(=O)(=O)c1ccc(F)cc1 [Example 45, N-[[2-dimethylamino-6-[4-(trifluoromethyl)phenyl]-4-pyridyl]methyl]-1-[ethyl-(4-fluorophenyl)sulfonyl-amino]cyclopropanecarboxamide] | 100% | 0.151 µM | – | –
10 | C/C=C(/C(=O)NCc1ccnc(-c2ccc(OC(F)(F)F)cc2)c1)N(CC)S(=O)(=O)c1ccc(F)cc1 [Example 22, (Z)-2-[ethyl-(4-fluorophenyl)sulfonyl-amino]-N-[[2-[4-(trifluoromethoxy)phenyl]-4-pyridyl]methyl]but-2-enamide] | 97% | 0.246 µM | – | –
11 | CCN(C1(C(=O)NCc2cc(-c3ccc(C(F)(F)F)cc3)nc(N3CCN(CC4CC4)CC3)c2)CC1)S(=O)(=O)c1ccc(F)cc1 [Example 64, N-[[2-[4-(cyclopropylmethyl)piperazin-1-yl]-6-[4-(trifluoromethyl)phenyl]-4-pyridyl]methyl]-1-[ethyl-(4-fluorophenyl)sulfonyl-amino]cyclopropanecarboxamide] | 99% | 0.338 µM | – | –
12 | CCN(C1(C(=O)NCc2cccc(-c3ccc(C(F)(F)F)cc3)c2)CC1)S(=O)(=O)c1ccc(F)cc1 [Example 29, 1-[ethyl-(4-fluorophenyl)sulfonyl-amino]-N-[[3-[4-(trifluoromethyl)phenyl]phenyl]methyl]cyclopropanecarboxamide] | 100% | 0.138 µM | – | –
13 | O=C(NCc1cc(-c2ccc(OC(F)(F)F)cc2)nc(N2CCCC2)c1)C1(NS(=O)(=O)c2ccc(F)cc2)CC1 [Example 33, 1-[(4-fluorophenyl)sulfonylamino]-N-[[2-pyrrolidin-1-yl-6-[4-(trifluoromethoxy)phenyl]-4-pyridyl]methyl]cyclopropanecarboxamide] | 55% | – | > 2 µM | –
14 | CC(C)CNc1nc(N2CCN(CC3CCCOC3)CC2)ncc1C(=O)NCc1ccccc1 (centres unmarked) [PF-4840154, reference compound] | – | – | – | 95%
15 | C/C=C(/C(=O)NCc1ccnc(-c2ccc(OC(F)(F)F)cc2)c1)N(C)S(=O)(=O)c1ccc(F)cc1 [Example 21, (Z)-2-[(4-fluorophenyl)sulfonyl-methyl-amino]-N-[[2-[4-(trifluoromethoxy)phenyl]-4-pyridyl]methyl]but-2-enamide] | 100% | 0.323 µM | – | –
16 | CCN(C1(C(=O)NCc2cccc(-c3ccc(OC(F)(F)F)cc3)c2)CC1)S(=O)(=O)c1ccc(F)cc1 [Example 31, 1-[ethyl-(4-fluorophenyl)sulfonyl-amino]-N-[[3-[4-(trifluoromethoxy)phenyl]phenyl]methyl]cyclopropanecarboxamide] | 100% | 0.057 µM | – | –
17 | C=C(C(=O)NCc1cc(-c2ccc(C(F)(F)F)cc2)nc(N2CCOCC2)c1)N(CC)S(=O)(=O)c1ccc(F)cc1 [Example 42, 2-[ethyl-(4-fluorophenyl)sulfonyl-amino]-N-[[2-morpholino-6-[4-(trifluoromethyl)phenyl]-4-pyridyl]methyl]prop-2-enamide] | 100% | 0.104 µM | – | –

Now from value to compound:

Row | inhibition at 10 µM | IC50 [1] | IC50 [2] | cultured cells with increased [Ca2+] (PF-4840154 1 μM, A549 cells) | Compound
18 | 100% | 0.66 µM | – | – | CCN(C1(C(=O)NCc2cc(-c3ccc(C(F)(F)F)cc3)nc(N3CCOCC3)c2)CC1)S(=O)(=O)c1ccc(F)cc1 [Example 62, 1-[ethyl-(4-fluorophenyl)sulfonyl-amino]-N-[[2-morpholino-6-[4-(trifluoromethyl)phenyl]-4-pyridyl]methyl] cyclopropanecarboxamide]
19 | 96% | 0.113 µM | – | – | CCN(C1(C(=O)NCc2cccc(-c3ccc(OC(F)(F)F)cc3)c2)CC1)S(=O)(=O)c1ccc(Cl)s1 [Example 47, 1-[(5-chloro-2-thienyl)sulfonyl-ethyl-amino]-N-[[3-[4-(trifluoromethoxy)phenyl]phenyl]methyl]cyclopropanecarboxamide]
20 | 47% | – | > 10 µM | – | C=C(C(=O)NCc1cc[n+]([O-])c(-c2ccc(C(F)(F)F)cc2)c1)N(CC)S(=O)(=O)c1ccc(F)cc1 [Example 54, 2-[ethyl-(4-fluorophenyl)sulfonyl-amino]-N-[[1-oxido-2-[4-(trifluoromethyl)phenyl]pyridin-1-ium-4-yl]methyl]prop-2-enamide]
21 | 97% | 0.724 µM | – | – | C/C=C(/C(=O)NCc1cccc(-c2ccc(C(F)(F)F)cc2)c1)N(CC)S(=O)(=O)c1ccc(Cl)cc1 [Example 24, (Z)-2-[(4-chlorophenyl)sulfonyl-ethyl-amino]-N-[[3-[4-(trifluoromethyl)phenyl]phenyl]methyl]but-2-enamide]
22 | 97% | 0.275 µM | – | – | CN(C1(C(=O)NCc2cccc(-c3ccc(OC(F)(F)F)cc3)c2)CC1)S(=O)(=O)c1ccc(F)cc1 [Example 57, 1-[(4-fluorophenyl)sulfonyl-methyl-amino]-N-[[3-[4-(trifluoromethoxy)phenyl]phenyl]methyl]cyclopropanecarboxamide]
23 | 100% | 0.033 µM | – | – | C=C(C(=O)NCc1ccnc(-c2ccc(C(F)(F)F)cc2)c1)N(CC)S(=O)(=O)c1ccc(Cl)s1 [Example 12, 2-[(5-chloro-2-thienyl)sulfonyl-ethyl-amino]-N-[[2-[4-(trifluoromethyl)phenyl]-4-pyridyl]methyl]prop-2-enamide]
24 | 80% | – | > 4 µM | – | O=C(NCc1cc(-c2ccc(C(F)(F)F)cc2)nc(N2CCCC2)c1)C1(NS(=O)(=O)c2ccc(F)cc2)CC1 [Example 32, 1-[(4-fluorophenyl)sulfonylamino]-N-[[2-pyrrolidin-1-yl-6-[4-(trifluoromethyl)phenyl]-4-pyridyl]methyl] cyclopropanecarboxamide]
